# In PubChem BioAssay (NCI):
#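 96-well plates; 48 h exposure; 5 concentrations. Endpoints by linear interpolation between flanking doses. Not reached: highest tested concentration assigned. GI50 is the concentration that inhibits growth by half. At the TGI there is no net growth.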
# How the values were obtained:
# Assay in all cases: NCI tumour cell line growth inhibition, 48 h
# A549 NSCLC = tested on: A549 NSCLC
# OVCAR-4 ovarian = tested on: OVCAR-4 ovarian
# CAKI-1 renal = tested on: CAKI-1 renal
# IGROV1 ovarian = tested on: IGROV1 ovarian
# SK-MEL-28 melanoma = tested on: SK-MEL-28 melanoma
# SNB-75 CNS = tested on: SNB-75 CNS
# OVCAR-5 ovarian = tested on: OVCAR-5 ovarian
# RXF 393 renal = tested on: RXF 393 renal
# HL-60(TB) leukemia = tested on: HL-60(TB) leukemia
# KM12 colon = tested on: KM12 colon
# NCI-H226 lung = tested on: NCI-H226 lung
# UACC-62 melanoma = tested on: UACC-62 melanoma
# NCI-H460 lung = tested on: NCI-H460 lung
# UACC-257 melanoma = tested on: UACC-257 melanoma
# SR leukemia = tested on: SR leukemia
# M14 melanoma = tested on: M14 melanoma
# OVCAR-3 ovarian = tested on: OVCAR-3 ovarian
# K-562 leukemia = tested on: K-562 leukemia
# MALME-3M melanoma = tested on: MALME-3M melanoma
# HOP-62 NSCLC = tested on: HOP-62 NSCLC
# UO-31 renal = tested on: UO-31 renal
# SF-268 CNS = tested on: SF-268 CNS
# A498 renal = tested on: A498 renal
# HCT-116 colon = tested on: HCT-116 colon
# SF-295 CNS = tested on: SF-295 CNS
# LOX IMVI melanoma = tested on: LOX IMVI melanoma
# OVCAR-8 ovarian = tested on: OVCAR-8 ovarian
# ACHN renal = tested on: ACHN renal
# SNB-19 CNS = tested on: SNB-19 CNS
# 786-0 renal = tested on: 786-0 renal
# MDA-MB-231 breast = tested on: MDA-MB-231 breast
# SK-MEL-5 melanoma = tested on: SK-MEL-5 melanoma
# MOLT-4 leukemia = tested on: MOLT-4 leukemia
# EKVX NSCLC = tested on: EKVX NSCLC
# SF-539 CNS = tested on: SF-539 CNS
# HCT-15 colon = tested on: HCT-15 colon
# NCI-H522 lung = tested on: NCI-H522 lung
# U251 CNS = tested on: U251 CNS
# COLO 205 colon = tested on: COLO 205 colon
# SK-OV-3 ovarian = tested on: SK-OV-3 ovarian
# DU-145 prostate = tested on: DU-145 prostate
# MDA-MB-435 = tested on: MDA-MB-435
# NCI-H23 lung = tested on: NCI-H23 lung
# SN12C renal = tested on: SN12C renal
# T-47D breast = tested on: T-47D breast
# MCF7 breast = tested on: MCF7 breast
# BT-549 breast = tested on: BT-549 breast
# NCI/ADR-RES ovarian = tested on: NCI/ADR-RES ovarian
# SK-MEL-2 melanoma = tested on: SK-MEL-2 melanoma
# SW-620 colon = tested on: SW-620 colon
# HT29 colon = tested on: HT29 colon
# TK-10 renal = tested on: TK-10 renal
# HS 578T breast = tested on: HS 578T breast
# HCC-2998 colon = tested on: HCC-2998 colon
structure (smiles),measurement,setting,value
CC#CC#Cc1cccc(=O)o1,GI50,A549 NSCLC,14.6 µM
same,TGI,A549 NSCLC,31.5 µM
same,GI50,OVCAR-4 ovarian,13 µM
same,TGI,OVCAR-4 ovarian,25.6 µM
same,GI50,CAKI-1 renal,2.1 µM
same,TGI,CAKI-1 renal,4.78 µM
same,GI50,IGROV1 ovarian,4.31 µM
same,TGI,IGROV1 ovarian,19.8 µM
same,GI50,SK-MEL-28 melanoma,4.25 µM
same,TGI,SK-MEL-28 melanoma,16.7 µM
same,GI50,SNB-75 CNS,4.75 µM
same,TGI,SNB-75 CNS,21 µM
same,GI50,OVCAR-5 ovarian,24.2 µM
same,TGI,OVCAR-5 ovarian,40 µM
same,GI50,RXF 393 renal,2.48 µM
same,TGI,RXF 393 renal,6.63 µM
same,GI50,HL-60(TB) leukemia,2.91 µM
same,TGI,HL-60(TB) leukemia,18.1 µM
same,GI50,KM12 colon,4.87 µM
same,TGI,KM12 colon,17 µM
same,GI50,NCI-H226 lung,21 µM
same,TGI,NCI-H226 lung,96.1 µM
same,GI50,UACC-62 melanoma,2.98 µM
same,TGI,UACC-62 melanoma,14.6 µM
same,GI50,NCI-H460 lung,13.5 µM
same,TGI,NCI-H460 lung,29 µM
same,GI50,UACC-257 melanoma,8.58 µM
same,TGI,UACC-257 melanoma,23.3 µM
same,GI50,SR leukemia,1.38 µM
same,TGI,SR leukemia,7.2 µM
same,GI50,M14 melanoma,9.52 µM
same,TGI,M14 melanoma,24.3 µM
same,GI50,OVCAR-3 ovarian,3.34 µM
same,TGI,OVCAR-3 ovarian,10.2 µM
same,GI50,K-562 leukemia,0.0136 µM
same,TGI,K-562 leukemia,> 100 µM
same,GI50,MALME-3M melanoma,2.8 µM
same,TGI,MALME-3M melanoma,14.1 µM
same,GI50,HOP-62 NSCLC,13.8 µM
same,TGI,HOP-62 NSCLC,27 µM
same,GI50,UO-31 renal,10.2 µM
same,TGI,UO-31 renal,22.6 µM
same,GI50,SF-268 CNS,4.29 µM
same,TGI,SF-268 CNS,18.1 µM
same,GI50,A498 renal,16.5 µM
same,TGI,A498 renal,30 µM
same,GI50,HCT-116 colon,2.1 µM
same,TGI,HCT-116 colon,5.79 µM
same,GI50,SF-295 CNS,12.8 µM
same,TGI,SF-295 CNS,26.3 µM
same,GI50,LOX IMVI melanoma,10.7 µM
same,TGI,LOX IMVI melanoma,24.1 µM
same,GI50,OVCAR-8 ovarian,4.89 µM
same,TGI,OVCAR-8 ovarian,> 100 µM
same,GI50,ACHN renal,8.15 µM
same,TGI,ACHN renal,20.6 µM
same,GI50,SNB-19 CNS,16.9 µM
same,TGI,SNB-19 CNS,30.5 µM
same,GI50,786-0 renal,13.6 µM
same,TGI,786-0 renal,28.9 µM
same,GI50,MDA-MB-231 breast,10.8 µM
same,TGI,MDA-MB-231 breast,24.7 µM
same,GI50,SK-MEL-5 melanoma,11.3 µM
same,TGI,SK-MEL-5 melanoma,26.7 µM
same,GI50,MOLT-4 leukemia,1.14 µM
same,TGI,MOLT-4 leukemia,> 100 µM
same,GI50,EKVX NSCLC,3.14 µM
same,TGI,EKVX NSCLC,16.2 µM
same,GI50,SF-539 CNS,5.63 µM
same,TGI,SF-539 CNS,26.6 µM
same,GI50,HCT-15 colon,8.08 µM
same,TGI,HCT-15 colon,30.2 µM
same,GI50,NCI-H522 lung,3.67 µM
same,TGI,NCI-H522 lung,16.3 µM
same,GI50,U251 CNS,11.2 µM
same,TGI,U251 CNS,24.9 µM
same,GI50,COLO 205 colon,3.85 µM
same,TGI,COLO 205 colon,14.4 µM
same,GI50,SK-OV-3 ovarian,20.5 µM
same,TGI,SK-OV-3 ovarian,56.4 µM
same,GI50,DU-145 prostate,15.7 µM
same,TGI,DU-145 prostate,29.2 µM
same,GI50,MDA-MB-435,3.82 µM
same,TGI,MDA-MB-435,22.7 µM
same,GI50,NCI-H23 lung,5.97 µM
same,TGI,NCI-H23 lung,21.8 µM
same,GI50,SN12C renal,26.8 µM
same,TGI,SN12C renal,> 100 µM
same,GI50,T-47D breast,4.35 µM
same,TGI,T-47D breast,18.7 µM
same,GI50,MCF7 breast,3.4 µM
same,TGI,MCF7 breast,18.4 µM
same,GI50,BT-549 breast,2.37 µM
same,TGI,BT-549 breast,10.1 µM
same,GI50,NCI/ADR-RES ovarian,18.2 µM
same,TGI,NCI/ADR-RES ovarian,> 100 µM
same,GI50,SK-MEL-2 melanoma,3.73 µM
same,TGI,SK-MEL-2 melanoma,34.3 µM
same,GI50,SW-620 colon,10 µM
same,TGI,SW-620 colon,24.9 µM
same,GI50,HT29 colon,4.17 µM
same,TGI,HT29 colon,14.6 µM
same,GI50,TK-10 renal,5.08 µM
same,TGI,TK-10 renal,18.3 µM
same,GI50,HS 578T breast,10.2 µM
same,TGI,HS 578T breast,81.4 µM
same,GI50,HCC-2998 colon,16 µM
same,TGI,HCC-2998 colon,29.5 µM
